According to paper PMC10586451, “Design, Synthesis, Pharmacological Activities, Structure–Activity Relationship, and In Silico Studies of Novel 5-Substituted-2-(morpholinoimino)-thiazolidin-4-ones” (ACS Omega, 2023):
Several values for one entry are separate records, joined by “and”; a condition that tells them apart may be missing. Equal values may be shown once.

What was measured:
[1] = CUPRAC assay (Cu(II) reducing power); settings: concentration at 0.500 absorbance; mean ± SEM
Procedure: (§1) DMSO solutions of four different concentrations (12.5, 25, 50, and 100 μM) of the synthesized compound 1–26 were prepared. DMSO was used as a control, while BHA and α-TOC were used as antioxidant standards.

[2] = DPPH radical scavenging assay; settings: mean ± SEM of three parallel measurements
Procedure: as §1

[3] = β-carotene-linoleic acid assay (antioxidant); settings: mean ± SEM of three parallel measurements
Procedure: as §1

tyrosinase = type: biochemical; settings: mean ± SEM of three parallel measurements
[4] = target: T1, Acetylcholinesterase (AChE) (Electrophorus electricus, UniProt O42275); assay: biochemical; settings: for SI for AChE: Selectivity index: IC50 for BChE/IC50 for AChE; for IC50: mean ± SEM of three parallel measurements
T1 construct: Acetylcholinesterase (AChE) from electric eel; from tissue; host or cells: electric eel
Procedure: (§2) Anticholinesterase activity of all was performed according to the Ellman’s method using a 96-well microplate reader. Acetylcholinesterase (AChE) from electric eel and butyrylcholinesterase (BChE) from horse serum were used. Acetylthiocholine iodide and butyrylthiocholine chloride were utilized as substrates. DTNB (5,50-dithiobis(2-nitrobenzoic) acid was used as a coloring agent to measure the anticholinesterase activity.[43] Measurements were obtained in triplicate.

[5] = target: T2, butyrylcholinesterase (BChE) (Equus caballus, UniProt P81908); assay: biochemical; settings: for SI for BChE: Selectivity index: IC50 for AChE/IC50 for BChE; for IC50: mean ± SEM of three parallel measurements
T2 construct: butyrylcholinesterase (BChE) from horse serum; from tissue; host or cells: horse serum
Procedure: as §2

urease = urease (Canavalia ensiformis, UniProt P07374); assay: biochemical; settings: urease activity IC50, mean ± SEM of three parallel measurements
[6] = ABTS cation radical scavenging assay; settings: mean ± SEM of three parallel measurements
Procedure: as §1

Sequence of urease (P07374 whole entry, looked up): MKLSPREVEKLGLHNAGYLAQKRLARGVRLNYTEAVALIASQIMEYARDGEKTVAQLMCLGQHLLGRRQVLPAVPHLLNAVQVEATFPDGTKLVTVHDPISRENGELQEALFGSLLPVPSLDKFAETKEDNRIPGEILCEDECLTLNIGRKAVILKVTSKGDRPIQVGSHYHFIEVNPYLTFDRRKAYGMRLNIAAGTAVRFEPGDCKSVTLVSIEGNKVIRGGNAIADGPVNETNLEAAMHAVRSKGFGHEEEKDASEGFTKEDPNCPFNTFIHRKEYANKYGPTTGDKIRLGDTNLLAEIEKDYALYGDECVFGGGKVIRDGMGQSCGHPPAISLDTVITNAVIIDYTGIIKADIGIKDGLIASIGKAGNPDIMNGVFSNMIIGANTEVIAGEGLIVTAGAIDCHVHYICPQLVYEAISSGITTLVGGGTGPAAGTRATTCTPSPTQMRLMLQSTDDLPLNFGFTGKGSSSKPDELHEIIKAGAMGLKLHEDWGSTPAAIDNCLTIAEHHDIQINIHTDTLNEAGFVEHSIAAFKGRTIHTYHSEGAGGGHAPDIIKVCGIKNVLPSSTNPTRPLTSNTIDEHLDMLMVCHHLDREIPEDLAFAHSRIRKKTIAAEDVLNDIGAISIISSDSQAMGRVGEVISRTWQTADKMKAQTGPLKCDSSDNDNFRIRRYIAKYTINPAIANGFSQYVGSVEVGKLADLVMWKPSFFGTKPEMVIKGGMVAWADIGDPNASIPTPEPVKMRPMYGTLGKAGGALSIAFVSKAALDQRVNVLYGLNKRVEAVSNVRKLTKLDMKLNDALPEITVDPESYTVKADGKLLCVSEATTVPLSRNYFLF
T1 sequence (O42275 24-633): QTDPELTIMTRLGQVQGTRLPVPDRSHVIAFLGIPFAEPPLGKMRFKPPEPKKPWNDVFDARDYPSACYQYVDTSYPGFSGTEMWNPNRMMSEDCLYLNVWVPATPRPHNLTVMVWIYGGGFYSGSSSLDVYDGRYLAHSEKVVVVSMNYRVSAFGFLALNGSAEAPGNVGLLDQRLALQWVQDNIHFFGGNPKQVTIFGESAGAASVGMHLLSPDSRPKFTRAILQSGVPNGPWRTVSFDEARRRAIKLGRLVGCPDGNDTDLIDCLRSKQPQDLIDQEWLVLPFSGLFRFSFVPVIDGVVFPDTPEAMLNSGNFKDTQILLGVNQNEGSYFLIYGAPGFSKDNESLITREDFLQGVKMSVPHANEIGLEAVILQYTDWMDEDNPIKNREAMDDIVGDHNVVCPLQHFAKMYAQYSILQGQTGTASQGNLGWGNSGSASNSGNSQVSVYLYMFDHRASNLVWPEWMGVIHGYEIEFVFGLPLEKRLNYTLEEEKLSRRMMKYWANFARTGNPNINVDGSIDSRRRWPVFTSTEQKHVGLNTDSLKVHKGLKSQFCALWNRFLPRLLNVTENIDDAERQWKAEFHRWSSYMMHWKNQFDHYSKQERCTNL
T2 sequence (P81908 whole entry): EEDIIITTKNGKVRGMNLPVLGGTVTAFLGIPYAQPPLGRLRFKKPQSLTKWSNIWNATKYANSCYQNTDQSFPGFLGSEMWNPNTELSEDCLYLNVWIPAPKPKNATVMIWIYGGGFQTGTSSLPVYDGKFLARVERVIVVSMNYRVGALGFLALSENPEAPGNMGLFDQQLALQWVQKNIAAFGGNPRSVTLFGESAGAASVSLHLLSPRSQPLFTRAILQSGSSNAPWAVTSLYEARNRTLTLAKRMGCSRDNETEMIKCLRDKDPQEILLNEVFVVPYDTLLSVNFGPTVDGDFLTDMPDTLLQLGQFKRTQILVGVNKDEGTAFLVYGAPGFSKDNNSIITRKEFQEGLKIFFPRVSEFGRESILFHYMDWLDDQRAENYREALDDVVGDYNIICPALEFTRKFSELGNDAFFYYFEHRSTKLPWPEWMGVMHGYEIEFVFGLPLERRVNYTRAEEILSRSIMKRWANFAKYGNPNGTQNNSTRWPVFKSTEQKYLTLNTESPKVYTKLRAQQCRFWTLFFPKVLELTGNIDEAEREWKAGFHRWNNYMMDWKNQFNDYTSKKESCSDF

With `Cn1cccc1C=C1SC(=NN2CCOCC2)N(c2ccccc2)C1=O` [Compound 19] the “CUPRAC assay A0.5” value [1] was 25.67 ± 0.00 µM, the IC50 [2] was 34.45 ± 0.05 µM and the IC50 [3] was 30.8 ± 0.47 µM. The IC50 (tyrosinase) was 19280 ± 90 µM, the “SI for AChE” value [4] was 1.44 and the IC50 [4] was 20.6 ± 0.55 µM. For the same compound, the “SI for BChE” value [5] was 0.69, the IC50 [5] was 29.7 ± 0.72 µM and the IC50 (urease) was 18.2 ± 0.5 µM. For the same compound, the IC50 [6] was 29.88 ± 0.2 µM.

With `O=C1C(=Cc2nccs2)SC(=NN2CCOCC2)N1c1ccccc1` [Compound 20] the “CUPRAC assay A0.5” value [1] was 36.95 ± 0.03 µM, the IC50 [2] was 35.2 ± 0.6 µM and the IC50 [3] was 32.8 ± 0.33 µM. The IC50 (tyrosinase) was 21400 ± 310 µM, the “SI for AChE” value [4] was 1.26 and the IC50 [4] was 26.8 ± 0.77 µM. The “SI for BChE” value [5] was 0.79, the IC50 [5] was 34.05 ± 0.06 µM and the IC50 (urease) was 16.8 ± 0.19 µM. It also gave an IC50 [6] of 31.3 ± 0.77 µM.

In the case of `O=C1C(=Cc2ccccn2)SC(=NN2CCOCC2)N1c1ccccc1` [Compound 21, 2-(Morpholinoimino)-3-phenyl-5-(pyridin-2-ylmethylene)thiazolidin-4-one], the “CUPRAC assay A0.5” value [1] is reported as 30.77 ± 0.00 µM, the IC50 [2] is reported as 35.01 ± 0.01 µM and the IC50 [3] is reported as 31.5 ± 0.48 µM. For the same compound, the IC50 (tyrosinase) was 11200 ± 390 µM, the “SI for AChE” value [4] was 1.36 and the IC50 [4] was 20.6 ± 1.02 µM. For the same compound, the “SI for BChE” value [5] was 0.73, the IC50 [5] was 28.1 ± 0.55 µM and the IC50 (urease) was 27.8 ± 0.51 µM. For the same compound, the IC50 [6] was 30.7 ± 0.56 µM.

For `O=C1C(=Cc2cccnc2)SC(=NN2CCOCC2)N1c1ccccc1` [Compound 22, 2-(Morpholinoimino)-3-phenyl-5-(pyridin-3-ylmethylene)thiazolidin-4-one], the “CUPRAC assay A0.5” value [1] was 30.42 ± 0.01 µM, the IC50 [2] was 34.77 ± 0.22 µM and the IC50 [3] was 31.6 ± 0.79 µM. The IC50 (tyrosinase) was 9130 ± 550 µM, the “SI for AChE” value [4] was 1.33 and the IC50 [4] was 24.8 ± 0.3 µM. The “SI for BChE” value [5] was 0.75, the IC50 [5] was 33 ± 0.84 µM and the IC50 (urease) was 26.2 ± 0.47 µM. It also gave an IC50 [6] of 30.11 ± 0.28 µM.

For `O=C1C(=Cc2ccncc2)SC(=NN2CCOCC2)N1c1ccccc1` [Compound 23, 2-(Morpholinoimino)-3-phenyl-5-(pyridin-4-ylmethylene)thiazolidin-4-one], the “CUPRAC assay A0.5” value [1] was 31.12 ± 0.00 µM, the IC50 [2] was 36.14 ± 0.16 µM and the IC50 [3] was 34.6 ± 0.5 µM. For the same compound, the IC50 (tyrosinase) was 8050 ± 110 µM, the “SI for AChE” value [4] was 1.29 and the IC50 [4] was 19.7 ± 0.54 µM. The “SI for BChE” value [5] was 0.78, the IC50 [5] was 25.4 ± 0.26 µM and the IC50 (urease) was 25 ± 0.54 µM. For the same compound, the IC50 [6] was 32.72 ± 0.19 µM.

With `O=C1C(=Cc2c[nH]c3ccccc23)SC(=NN2CCOCC2)N1c1ccccc1` [Compound 24, 5-((1H-Indol-3-yl)methylene)-2-(morpholinoimino)-3-phenylthiazolidin-4-one] the “CUPRAC assay A0.5” value [1] was 30.04 ± 0.02 µM, the IC50 [2] was 33.24 ± 0.21 µM and the IC50 [3] was 27.73 ± 0.23 µM. For the same compound, the IC50 (tyrosinase) was 7210 ± 270 µM, the “SI for AChE” value [4] was 1.32 and the IC50 [4] was 19.5 ± 0.29 µM. The “SI for BChE” value [5] was 0.76, the IC50 [5] was 25.7 ± 0.69 µM and the IC50 (urease) was 23.6 µM and 22.5 µM. It also gave an IC50 [6] of 30 ± 1.01 µM.

With `O=C1C(=Cc2ccc3[nH]ccc3c2)SC(=NN2CCOCC2)N1c1ccccc1` [Compound 25, 5-((1H-Indole-5-yl)methylene)-2-(morpholinoimino)-3-phenylthiazolidin-4-one] the “CUPRAC assay A0.5” value [1] was 39.50 ± 0.01 µM, the IC50 [2] was 38.2 ± 0.88 µM and the IC50 [3] was 33.6 ± 0.73 µM. The IC50 (tyrosinase) was 8400 ± 640 µM, the “SI for AChE” value [4] was 1.29 and the IC50 [4] was 19.8 ± 0.5 µM. For the same compound, the “SI for BChE” value [5] was 0.78, the IC50 [5] was 25.5 ± 0.78 µM and the IC50 (urease) was 21.7 ± 0.06 µM. It also gave an IC50 [6] of 34.05 ± 0.27 µM.

In the case of `O=C1C(=Cc2ccc3ccccc3n2)SC(=NN2CCOCC2)N1c1ccccc1` [Compound 26, 2-(Morpholinoimino)-3-phenyl-5-(quinolin-2-ylmethylene)thiazolidin-4-one], the “CUPRAC assay A0.5” value [1] is reported as 25.91 ± 0.02 µM, the IC50 [2] is reported as 29.7 ± 0.9 µM and the IC50 [3] is reported as 22.4 ± 0.3 µM. The IC50 (tyrosinase) was 8760 ± 900 µM, the “SI for AChE” value [4] was 1.30 and the IC50 [4] was 19.8 ± 0.37 µM. For the same compound, the “SI for BChE” value [5] was 0.77, the IC50 [5] was 25.7 ± 0.53 µM and the IC50 (urease) was 21.5 ± 0.44 µM. The IC50 [6] was 26.5 ± 0.63 µM.
